Residues, ends and D or L forms follow the SMILES beside them.
test system: E. coli O157:H7; type: cell-based, Escherichia coli; settings: screening-stage peptides tested at 1, 6, 12 and 25 μg/mL
Excerpt: In the present invention we used the statistical thermodynamics algorithm TANGO to identify aggregation prone regions (APR) in the proteome of E. coli strain O157:H7. This yielded 3535 sequences of at least 6 amino acids in length and a TANGO score of at least 20%. In order to generate efficient aggregation seeds, we employed a previously devised tandem repeat design ^19, 21, in which the APRs are repeated once and separated by a linker. Given the length limitation on solid phase peptide synthesis with regard to yield and purity, we focused on the 1542 APRs with a length of 7 amino acids. In order to maximize the potential of these peptides to induce aggregation in E. coli, we ranked the APRs by their frequency of occurrence throughout the E. coli proteome, allowing a single amino acid mismatch, and selected the first 75 most frequently occurring sequences from this list (Table 4). In the design pattern, and in order to increase the colloidal stability of these aggregating peptides, the APRs are flanked by aggregation gatekeepers, a class of residues that was previously shown to reduce aggregation kinetics^22-24. […] To generate the tandem we used a single proline residue as a linker between the gatekeeper-flanked APRs. In addition to the 75 peptides generated in this fashion, we added 2 variants of each of the first 25 peptides in the list by randomly mutating one residue in the first APR repeat to arginine to further modulate the aggregation propensity of the peptides (Table 4). All the peptides were generated using solid phase synthesis at 200 nmole scale and dissolved in DMSO to a theoretical stock concentration of 2 mM (assuming 100% synthesis efficiency). Peptide activity on the growth of E. coli O157:H7 was measured at dilutions of the peptide corresponding to concentrations of 1, 6, 12 and 25 μg/mL. […] The Matthews Correlations Coefficient (MCC) with the measured activity was 0.1 at 12 μg/mL and 0.24 at 25 μg/mL.

Structure (SMILES)	E. coli O157 (apparent MIC in screen) [mg/L]
CC[C@H](C)[C@H](NC(=O)CNC(=O)[C@H](CCCNC(=N)N)NC(=O)[C@H](CC(C)C)NC(=O)[C@@H](N)CCCNC(=N)N)C(=O)N[C@@H](C)C(=O)N[C@@H](CC(C)C)C(=O)NCC(=O)N[C@@H](CCCNC(=N)N)C(=O)N[C@@H](CCCNC(=N)N)C(=O)N1CCC[C@H]1C(=O)N[C@@H](CCCNC(=N)N)C(=O)N[C@@H](CC(C)C)C(=O)N[C@H](C(=O)NCC(=O)N[C@H](C(=O)N[C@@H](C)C(=O)N[C@@H](CC(C)C)C(=O)NCC(=O)N[C@@H](CCCNC(=N)N)C(=O)N[C@@H](CCCNC(=N)N)C(=O)O)[C@@H](C)CC)[C@@H](C)CC [Peptide P90] (H-RLRGIALGRRPRLIGIALGRR-OH; N-terminus and C-terminus assumed)	25
CC(C)C[C@H](NC(=O)[C@H](C)NC(=O)[C@@H](N)CCCNC(=N)N)C(=O)N[C@@H](CC(C)C)C(=O)N[C@H](C(=O)N[C@@H](C)C(=O)N[C@@H](CCCNC(=N)N)C(=O)N[C@@H](CC(C)C)C(=O)N[C@@H](CCCNC(=N)N)C(=O)N[C@@H](CCCNC(=N)N)C(=O)N1CCC[C@H]1C(=O)N[C@@H](CCCNC(=N)N)C(=O)N[C@@H](C)C(=O)N[C@@H](CC(C)C)C(=O)N[C@@H](CC(C)C)C(=O)N[C@H](C(=O)N[C@@H](C)C(=O)N[C@H](C(=O)N[C@@H](CC(C)C)C(=O)N[C@@H](CCCNC(=N)N)C(=O)N[C@@H](CCCNC(=N)N)C(=O)O)C(C)C)[C@@H](C)O)[C@@H](C)O [Peptide P91] (H-RALLTARLRRPRALLTAVLRR-OH; N-terminus and C-terminus assumed)	25
CC(C)C[C@H](NC(=O)[C@H](C)NC(=O)[C@@H](NC(=O)[C@H](CC(C)C)NC(=O)[C@H](CCC(N)=O)NC(=O)[C@H](CCCNC(=N)N)NC(=O)[C@@H]1CCCN1C(=O)[C@H](CCCNC(=N)N)NC(=O)[C@H](CCCNC(=N)N)NC(=O)[C@@H](NC(=O)[C@H](CC(C)C)NC(=O)[C@H](CCCNC(=N)N)NC(=O)[C@H](C)NC(=O)[C@@H](NC(=O)[C@H](CC(C)C)NC(=O)[C@H](CCC(N)=O)NC(=O)[C@@H](N)CCCNC(=N)N)C(C)C)C(C)C)C(C)C)C(=O)N[C@@H](CC(C)C)C(=O)N[C@H](C(=O)N[C@@H](CCCNC(=N)N)C(=O)N[C@@H](CCCNC(=N)N)C(=O)O)C(C)C [Peptide P92] (H-RQLVARLVRRPRQLVALLVRR-OH; N-terminus and C-terminus assumed)	6
CC(C)C[C@H](NC(=O)[C@H](C)NC(=O)[C@H](CC(C)C)NC(=O)[C@@H](NC(=O)[C@H](C)NC(=O)[C@H](CO)NC(=O)[C@H](CCCNC(=N)N)NC(=O)[C@@H]1CCCN1C(=O)[C@H](CCCNC(=N)N)NC(=O)[C@H](CCCNC(=N)N)NC(=O)[C@H](CC(C)C)NC(=O)[C@H](CC(C)C)NC(=O)[C@H](C)NC(=O)[C@H](CC(C)C)NC(=O)[C@H](CCCNC(=N)N)NC(=O)[C@H](C)NC(=O)[C@H](CO)NC(=O)[C@@H](N)CCCNC(=N)N)C(C)C)C(=O)N[C@@H](CC(C)C)C(=O)N[C@@H](CCCNC(=N)N)C(=O)N[C@@H](CCCNC(=N)N)C(=O)O [Peptide P93] (H-RSARLALLRRPRSAVLALLRR-OH; N-terminus and C-terminus assumed)	25
CC(C)C[C@H](NC(=O)CNC(=O)[C@H](CCCNC(=N)N)NC(=O)[C@@H]1CCCN1C(=O)[C@H](CCCNC(=N)N)NC(=O)[C@H](CCCNC(=N)N)NC(=O)[C@H](CCC(N)=O)NC(=O)[C@H](CC(C)C)NC(=O)[C@H](C)NC(=O)[C@H](CC(C)C)NC(=O)[C@H](CCCNC(=N)N)NC(=O)[C@H](CC(C)C)NC(=O)CNC(=O)[C@@H](N)CCCNC(=N)N)C(=O)N[C@@H](CC(C)C)C(=O)N[C@@H](CC(C)C)C(=O)N[C@@H](C)C(=O)N[C@@H](CC(C)C)C(=O)N[C@@H](CCC(N)=O)C(=O)N[C@@H](CCCNC(=N)N)C(=O)N[C@@H](CCCNC(=N)N)C(=O)O [Peptide P99] (H-RGLRLALQRRPRGLLLALQRR-OH; N-terminus and C-terminus assumed)	25
CC(C)C[C@H](NC(=O)[C@H](CC(C)C)NC(=O)[C@H](CC(C)C)NC(=O)[C@H](CCCNC(=N)N)NC(=O)[C@@H]1CCCN1C(=O)[C@H](CCCNC(=N)N)NC(=O)[C@H](CCCNC(=N)N)NC(=O)[C@@H](NC(=O)[C@H](CC(C)C)NC(=O)[C@H](CC(C)C)NC(=O)[C@H](CO)NC(=O)[C@H](CCCNC(=N)N)NC(=O)[C@H](CC(C)C)NC(=O)[C@H](CC(C)C)NC(=O)[C@@H](N)CCCNC(=N)N)C(C)C)C(=O)N[C@@H](CO)C(=O)N[C@@H](CC(C)C)C(=O)N[C@@H](CC(C)C)C(=O)N[C@H](C(=O)N[C@@H](CCCNC(=N)N)C(=O)N[C@@H](CCCNC(=N)N)C(=O)O)C(C)C [Peptide P101] (H-RLLRSLLVRRPRLLLSLLVRR-OH; N-terminus and C-terminus assumed)	12
CC(C)C[C@H](NC(=O)[C@H](C)NC(=O)[C@H](CC(C)C)NC(=O)[C@H](CC(C)C)NC(=O)[C@H](CC(C)C)NC(=O)[C@H](CCCNC(=N)N)NC(=O)[C@@H]1CCCN1C(=O)[C@H](CCCNC(=N)N)NC(=O)[C@H](CCCNC(=N)N)NC(=O)[C@H](CO)NC(=O)[C@H](CCCNC(=N)N)NC(=O)[C@H](CC(C)C)NC(=O)[C@H](C)NC(=O)[C@H](CC(C)C)NC(=O)[C@H](CC(C)C)NC(=O)[C@H](CC(C)C)NC(=O)[C@@H](N)CCCNC(=N)N)C(=O)N[C@@H](CC(C)C)C(=O)N[C@@H](CO)C(=O)N[C@@H](CCCNC(=N)N)C(=O)N[C@@H](CCCNC(=N)N)C(=O)O [Peptide P103] (H-RLLLALRSRRPRLLLALLSRR-OH; N-terminus and C-terminus assumed)	25
CC(C)C[C@H](NC(=O)[C@H](C)NC(=O)[C@@H](N)CCCNC(=N)N)C(=O)N[C@@H](CC(C)C)C(=O)N[C@@H](CCCNC(=N)N)C(=O)N[C@H](C(=O)N[C@@H](CC(C)C)C(=O)N[C@@H](CC(C)C)C(=O)N[C@@H](CCCNC(=N)N)C(=O)N[C@@H](CCCNC(=N)N)C(=O)N1CCC[C@H]1C(=O)N[C@@H](CCCNC(=N)N)C(=O)N[C@@H](C)C(=O)N[C@@H](CC(C)C)C(=O)N[C@@H](CC(C)C)C(=O)N[C@H](C(=O)N[C@H](C(=O)N[C@@H](CC(C)C)C(=O)N[C@@H](CC(C)C)C(=O)N[C@@H](CCCNC(=N)N)C(=O)N[C@@H](CCCNC(=N)N)C(=O)O)[C@@H](C)O)[C@@H](C)O)[C@@H](C)O [Peptide P105] (H-RALLRTLLRRPRALLTTLLRR-OH; N-terminus and C-terminus assumed)	6
CC(C)C[C@H](NC(=O)[C@H](C)NC(=O)[C@H](CC(C)C)NC(=O)[C@@H](NC(=O)[C@H](CCCNC(=N)N)NC(=O)[C@@H]1CCCN1C(=O)[C@H](CCCNC(=N)N)NC(=O)[C@H](CCCNC(=N)N)NC(=O)[C@H](CC(C)C)NC(=O)[C@H](C)NC(=O)[C@H](CCCNC(=N)N)NC(=O)[C@H](CC(C)C)NC(=O)[C@H](C)NC(=O)[C@H](CC(C)C)NC(=O)[C@@H](NC(=O)[C@@H](N)CCCNC(=N)N)C(C)C)C(C)C)C(=O)N[C@@H](C)C(=O)N[C@@H](C)C(=O)N[C@@H](CC(C)C)C(=O)N[C@@H](CCCNC(=N)N)C(=O)N[C@@H](CCCNC(=N)N)C(=O)O [Peptide P111] (H-RVLALRALRRPRVLALAALRR-OH; N-terminus and C-terminus assumed)	25
CC(C)C[C@H](NC(=O)[C@H](C)NC(=O)[C@@H](N)CCCNC(=N)N)C(=O)N[C@@H](C)C(=O)N[C@@H](CCCNC(=N)N)C(=O)N[C@@H](C)C(=O)N[C@@H](CC(C)C)C(=O)N[C@@H](CC(C)C)C(=O)N[C@@H](CCCNC(=N)N)C(=O)N[C@@H](CCCNC(=N)N)C(=O)N1CCC[C@H]1C(=O)N[C@@H](CCCNC(=N)N)C(=O)N[C@@H](C)C(=O)N[C@@H](CC(C)C)C(=O)N[C@@H](C)C(=O)N[C@H](C(=O)N[C@@H](C)C(=O)N[C@@H](CC(C)C)C(=O)N[C@@H](CC(C)C)C(=O)N[C@@H](CCCNC(=N)N)C(=O)N[C@@H](CCCNC(=N)N)C(=O)O)C(C)C [Peptide P112] (H-RALARALLRRPRALAVALLRR-OH; N-terminus and C-terminus assumed)	25
CC(C)C[C@H](NC(=O)CNC(=O)[C@H](CC(C)C)NC(=O)[C@@H](NC(=O)[C@H](C)NC(=O)[C@H](CCCNC(=N)N)NC(=O)[C@@H]1CCCN1C(=O)[C@H](CCCNC(=N)N)NC(=O)[C@H](CCCNC(=N)N)NC(=O)[C@H](C)NC(=O)[C@H](CC(C)C)NC(=O)[C@H](CC(C)C)NC(=O)[C@H](CCCNC(=N)N)NC(=O)[C@H](CC(C)C)NC(=O)[C@@H](NC(=O)[C@H](C)NC(=O)[C@@H](N)CCCNC(=N)N)C(C)C)C(C)C)C(=O)N[C@@H](CC(C)C)C(=O)N[C@@H](C)C(=O)N[C@@H](CCCNC(=N)N)C(=O)N[C@@H](CCCNC(=N)N)C(=O)O [Peptide P113] (H-RAVLRLLARRPRAVLGLLARR-OH; N-terminus and C-terminus assumed)	25
